Test results: paper PMC8650577
*1 amine or outer side, *2 acyl side, *3 side chain or, on linkers, in order; H or OH if unused. Where a SMILES comes first, the peptide text is derived from it. Bridges are numbered along the chain shown (N, C = ends). [ ]: non-standard residue; d: D form. Maleimide(3,4-diyl) = O=C1NC(=O)C([*:2])=C1[*:1]; hCys = N[C@@H](CCS)C(=O)O

How the values were obtained:
circular dichroism = conditions: 10 mM sodium phosphate; pH 7.2; 25 °C; 250 uM
[1] = Two-component bis-thiol stapling with 2,3-dibromomaleimide (200 uM), TCEP (100 uM); thioether formation followed at 395 nm; conditions: the molecule shown is the open-chain precursor, 50 mM aq. phosphate buffer pH 6.0, 0.1 mM, 20.0 °C, 1.0 h
[2] = Two-component i,i+4 bis-thiol stapling: TCEP (1.1 eq) reduction for 1 h, then 2,3-dibromomaleimide (1.1 eq) for 1 h; two S-C(maleimide) thioether bonds formed; conditions: the molecule shown is the open-chain precursor, MeCN/50 mM aq. ammonium acetate pH 7.4 (1:1), 3.3 mM, 14 steps

## CC(=O)N[C@H]1CCSC2=C(SCC[C@@H](C(N)=O)NC(=O)[C@H](C)NC(=O)[C@H](C)NC(=O)[C@H](C)NC1=O)C(=O)NC2=O (Ac-[hCys]AAA[hCys]-NH2; linker 1-5 via Maleimide(3,4-diyl))
Circular dichroism
  helicity: 13 rel %

## CC(=O)N[C@@H]1CSC2=C(SC[C@@H](C(N)=O)NC(=O)[C@H](C)NC(=O)[C@H](C)NC(=O)[C@H](C)NC1=O)C(=O)NC2=O
Circular dichroism
  helicity: 28 rel %

## CC(=O)N[C@H]1CCSC2=C(SC[C@@H](C(N)=O)NC(=O)[C@H](C)NC(=O)[C@H](C)NC(=O)[C@H](C)NC1=O)C(=O)NC2=O (Ac-[hCys]AAAC-NH2; linker 1-5 via Maleimide(3,4-diyl))
Circular dichroism
  helicity: 11 rel %

## CC(=O)N[C@@H](CSC1=C(Br)C(=O)NC1=O)C(=O)N[C@@H](C)C(=O)N[C@@H](C)C(=O)N[C@@H](C)C(=O)N[C@@H](CS)C(N)=O [Ac-Cys-Ala-Ala-Ala-Cys-NH2]
[1]; 19-membered ring
  ring closure, halflife: 8 min
[2]; 19-membered ring
  ring closure, overall yield: 21%

## CC(=O)N[C@H]1CSC2=C(SC[C@H](C(N)=O)NC(=O)[C@H](C)NC(=O)[C@H](C)NC(=O)[C@H](C)NC1=O)C(=O)NC2=O
Circular dichroism
  helicity: 17 rel %

## CC(=O)N[C@@H]1CSC2=C(SC[C@H](C(N)=O)NC(=O)[C@H](C)NC(=O)[C@H](C)NC(=O)[C@H](C)NC1=O)C(=O)NC2=O
Circular dichroism
  helicity: 13 rel %

## CC(=O)N[C@@H](CSC1=C(Br)C(=O)NC1=O)C(=O)N[C@@H](C)C(=O)N[C@@H](C)C(=O)N[C@@H](C)C(=O)N[C@H](CS)C(N)=O [Ac-Cys-Ala-Ala-Ala-D-Cys-NH2]
[1]; 19-membered ring
  ring closure, halflife: 8 min
[2]; 19-membered ring
  ring closure, overall yield: 21%

## CC(=O)N[C@H](CSC1=C(Br)C(=O)NC1=O)C(=O)N[C@@H](C)C(=O)N[C@@H](C)C(=O)N[C@@H](C)C(=O)N[C@@H](CS)C(N)=O [Ac-D-Cys-Ala-Ala-Ala-Cys-NH2]
[1]; 19-membered ring
  ring closure, halflife: 8 min
[2]; 19-membered ring
  ring closure, overall yield: 7%

## CC(=O)N[C@@H](CSC1=C(Br)C(=O)NC1=O)C(=O)N[C@@H](C)C(=O)N[C@@H](C)C(=O)N[C@@H](C)C(=O)N[C@@H](CCS)C(N)=O [Ac-Cys-Ala-Ala-Ala-hCys-NH2]
[1]; 20-membered ring
  ring closure, halflife: 13 min
[2]; 20-membered ring
  ring closure, overall yield: 4%

## CC(=O)N[C@H](CSC1=C(Br)C(=O)NC1=O)C(=O)N[C@@H](C)C(=O)N[C@@H](C)C(=O)N[C@@H](C)C(=O)N[C@H](CS)C(N)=O [Ac-D-Cys-Ala-Ala-Ala-D-Cys-NH2]
[1]; 19-membered ring
  ring closure, halflife: 10 min
[2]; 19-membered ring
  ring closure, overall yield: 11%

## CC(=O)N[C@H]1CSC2=C(SC[C@@H](C(N)=O)NC(=O)[C@H](C)NC(=O)[C@H](C)NC(=O)[C@H](C)NC1=O)C(=O)NC2=O
Circular dichroism
  helicity: 25 rel %

## CC(=O)N[C@@H](CCSC1=C(Br)C(=O)NC1=O)C(=O)N[C@@H](C)C(=O)N[C@@H](C)C(=O)N[C@@H](C)C(=O)N[C@@H](CCS)C(N)=O [Ac-hCys-Ala-Ala-Ala-hCys-NH2]
[1]; 21-membered ring
  ring closure, halflife: 9 min
[2]; 21-membered ring
  ring closure, overall yield: 17%

## CC(=O)N[C@H]1CSC2=C(SCC[C@@H](C(N)=O)NC(=O)[C@H](C)NC(=O)[C@H](C)NC(=O)[C@H](C)NC1=O)C(=O)NC2=O (Ac-CAAA[hCys]-NH2; linker 1-5 via Maleimide(3,4-diyl))
Circular dichroism
  helicity: 48 rel %

## CC(=O)N[C@@H](CCSC1=C(Br)C(=O)NC1=O)C(=O)N[C@@H](C)C(=O)N[C@@H](C)C(=O)N[C@@H](C)C(=O)N[C@@H](CS)C(N)=O [Ac-hCys-Ala-Ala-Ala-Cys-NH2]
[1]; 20-membered ring
  ring closure, halflife: 11 min
[2]; 20-membered ring
  ring closure, overall yield: 18%
